According to ChEMBL document CHEMBL1135203, “Benzodiazepine inhibitors of the MMPs and TACE” (Bioorg Med Chem Lett, 2002):
Calls of active or inactive are those of the source. The calls are words filed in the database; no cut-off is given here.

Experiments:
Collagenase 3 = Collagenase 3 (Homo sapiens, UniProt P45452); experiment: Concentration required in vitro to inhibit Matrix metalloprotease-13
THP-1 = experiment: Compound was tested for its ability to inhibit TNF-alpha in a cellular assay using THP-1 cells at 3 uM; format: functional; conditions: Homo sapiens
Rattus norvegicus [1] = experiment: Dialysis activity is detected at a dose of 50 mpk after 1 hr of ip administration; format: functional
Rattus norvegicus [2] = experiment: Dialysis activity is detected at a dose of 50 mpk after 1 hr of po administration; format: functional; parameters: unit not given here
Interstitial collagenase = target: T1, Interstitial collagenase (Homo sapiens, UniProt P03956); experiment: Concentration required in vitro to inhibit Matrix metalloprotease-1
T1 sequence (P03956 whole entry): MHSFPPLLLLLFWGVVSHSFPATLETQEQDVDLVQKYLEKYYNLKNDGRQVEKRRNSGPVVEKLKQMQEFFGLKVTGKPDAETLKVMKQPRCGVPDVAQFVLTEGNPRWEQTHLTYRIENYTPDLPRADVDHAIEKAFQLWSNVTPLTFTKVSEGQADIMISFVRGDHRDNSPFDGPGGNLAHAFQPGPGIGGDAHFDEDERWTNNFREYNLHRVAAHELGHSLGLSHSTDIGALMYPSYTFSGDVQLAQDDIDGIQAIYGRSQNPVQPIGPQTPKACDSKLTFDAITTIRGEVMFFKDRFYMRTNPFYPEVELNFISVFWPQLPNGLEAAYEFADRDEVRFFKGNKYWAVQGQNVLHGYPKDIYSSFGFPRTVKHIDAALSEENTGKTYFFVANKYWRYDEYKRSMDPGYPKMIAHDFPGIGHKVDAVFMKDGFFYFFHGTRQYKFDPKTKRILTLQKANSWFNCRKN

[3] = target: Disintegrin and metalloproteinase domain-containing protein 17 (Homo sapiens, UniProt P78536); experiment: Concentration required in vitro to inhibit TNF-alpha converting enzyme (TACE)
Chain of Disintegrin and metalloproteinase domain-containing protein 17 (P78536 whole entry, the tested form may be a part): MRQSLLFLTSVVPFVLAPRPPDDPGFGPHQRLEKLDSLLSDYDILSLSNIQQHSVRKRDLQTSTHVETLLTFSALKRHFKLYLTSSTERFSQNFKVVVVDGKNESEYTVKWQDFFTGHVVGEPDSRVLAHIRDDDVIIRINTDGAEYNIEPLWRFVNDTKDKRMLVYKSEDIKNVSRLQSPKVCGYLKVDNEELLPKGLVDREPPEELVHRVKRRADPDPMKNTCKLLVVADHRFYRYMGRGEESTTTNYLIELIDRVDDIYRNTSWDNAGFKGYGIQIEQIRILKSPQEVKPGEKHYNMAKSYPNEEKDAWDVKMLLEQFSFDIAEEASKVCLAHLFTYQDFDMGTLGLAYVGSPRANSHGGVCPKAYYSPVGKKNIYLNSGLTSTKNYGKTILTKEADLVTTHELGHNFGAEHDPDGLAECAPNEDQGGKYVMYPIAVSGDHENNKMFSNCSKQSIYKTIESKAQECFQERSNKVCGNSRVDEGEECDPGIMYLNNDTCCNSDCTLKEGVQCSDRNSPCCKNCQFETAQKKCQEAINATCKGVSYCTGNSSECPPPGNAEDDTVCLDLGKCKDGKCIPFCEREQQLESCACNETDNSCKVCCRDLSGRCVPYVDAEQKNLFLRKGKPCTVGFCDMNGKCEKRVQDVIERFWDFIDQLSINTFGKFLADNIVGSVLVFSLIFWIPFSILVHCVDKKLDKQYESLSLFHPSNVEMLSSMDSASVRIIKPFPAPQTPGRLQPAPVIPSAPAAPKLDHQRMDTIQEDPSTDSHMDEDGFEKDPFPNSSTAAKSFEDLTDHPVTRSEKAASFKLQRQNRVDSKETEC

Bos taurus [4] = species on record: Bos taurus; experiment: Compound was tested for inhibition of cartilage degradation using bovine cartilage explant model; format: functional, Cartilage tissue
Rattus norvegicus [5] = species on record: Rattus norvegicus; experiment: Dialysis activity is detected at a dose of 50 mpk; format: functional
Bos taurus [6] = species on record: Bos taurus; experiment: Inhibition of cartilage degradation by the compound was detected using bovine cartilage explant model at 1 uM; format: functional, Cartilage tissue
[7] = target: Matrix metalloproteinase-9 (Homo sapiens, UniProt P14780); experiment: Concentration required in vitro to inhibit Matrix metalloprotease-9
Chain of Matrix metalloproteinase-9 (P14780 whole entry): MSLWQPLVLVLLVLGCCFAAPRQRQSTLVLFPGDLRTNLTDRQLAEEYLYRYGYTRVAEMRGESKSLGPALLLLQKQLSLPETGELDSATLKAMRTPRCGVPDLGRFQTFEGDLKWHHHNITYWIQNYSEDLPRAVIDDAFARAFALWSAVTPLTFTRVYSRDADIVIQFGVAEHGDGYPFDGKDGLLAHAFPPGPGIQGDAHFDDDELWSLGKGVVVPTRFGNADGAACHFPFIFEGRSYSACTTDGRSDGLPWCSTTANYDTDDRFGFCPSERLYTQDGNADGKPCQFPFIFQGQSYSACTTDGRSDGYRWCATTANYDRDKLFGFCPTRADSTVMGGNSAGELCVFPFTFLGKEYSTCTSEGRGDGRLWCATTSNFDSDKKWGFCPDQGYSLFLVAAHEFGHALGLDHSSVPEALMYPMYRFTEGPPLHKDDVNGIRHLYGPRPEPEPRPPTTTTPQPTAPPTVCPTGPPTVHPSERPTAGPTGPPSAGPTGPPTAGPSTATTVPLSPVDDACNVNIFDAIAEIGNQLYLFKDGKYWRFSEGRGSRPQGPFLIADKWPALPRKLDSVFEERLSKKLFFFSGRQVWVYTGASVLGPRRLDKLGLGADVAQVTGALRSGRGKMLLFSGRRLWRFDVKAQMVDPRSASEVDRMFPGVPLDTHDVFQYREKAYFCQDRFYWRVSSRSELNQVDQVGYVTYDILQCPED

Rattus norvegicus [8] = experiment: Dialysis activity is detected at a dose of 50 mpk after 2 hr of ip administration; format: functional; parameters: unit not given here
Rattus norvegicus [9] = species on record: Rattus norvegicus; experiment: Dialysis activity is detected at a dose of 50 mpk; IA denotes inactive; format: functional, organism-based

Row | IC50 (Collagenase 3) | IC50 [7] | SMILES | IC50 (Interstitial collagenase) | IC50 [3] | also measured
1 | 9.5 nM |  | CC#CCOc1ccc(S(=O)(=O)N2Cc3ccccc3N(C(=O)c3ccccc3)CC2C(=O)NO)cc1 (stereo unspecified) |  |  | inhibition at 3 µM (THP-1): 25%
2 |  |  | COc1ccc(S(=O)(=O)N2Cc3ccccc3N(C(=O)C3CC3)CC2C(=O)NO)cc1 (stereo unspecified) |  |  | Activity (Rattus norvegicus [1]): 0.8; Activity (Rattus norvegicus [2]): 0.49
3 |  |  | O=C(NO)C1CN(C(=O)c2ccccc2)c2ccccc2CN1S(=O)(=O)c1ccc(Oc2ccc(Cl)cc2)cc1 (stereo unspecified) | 59 nM | 528 nM | 
4 |  |  | COc1ccc(S(=O)(=O)N(Cc2cccnc2)[C@@H](C(=O)NO)C(C)C)cc1.Cl [CGS-27023A] |  |  | Inhibition (Bos taurus [4]): 63%; Activity (Rattus norvegicus [5]): 1; Activity (Bos taurus [6]): 1
5 |  | 13 nM | COc1ccc(S(=O)(=O)N2Cc3ccccc3N(C(=O)C3CCCCC3)CC2C(=O)NO)cc1 (stereo unspecified) |  |  | Activity (Rattus norvegicus [2]): 0.47
6 | 2 nM | 4 nM | COc1ccc(S(=O)(=O)N2Cc3ccccc3N(C(=O)c3cc(F)ccc3C)CC2C(=O)NO)cc1 (stereo unspecified) |  |  | 
7 | 34.6 nM | 95.5 nM | CC#CCOc1ccc(S(=O)(=O)N2Cc3ccccc3N(S(C)(=O)=O)CC2C(=O)NO)cc1 (stereo unspecified) | 260 nM | 20 nM | inhibition at 3 µM (THP-1): 44%
8 | 1 nM |  | COc1ccc(S(=O)(=O)N2Cc3ccccc3N(C(=O)c3cccs3)CC2C(=O)NO)cc1 (stereo unspecified) | 20 nM |  | Activity (Bos taurus [6]): 1.2; Activity (Rattus norvegicus [8]): 1.1
9 | 2 nM | 2 nM | COCC(=O)N1CC(C(=O)NO)N(S(=O)(=O)c2ccc(OC)cc2)Cc2ccccc21 (stereo unspecified) |  |  | Activity (Rattus norvegicus [2]): 1; Activity (Bos taurus [6]): 2.5
10 | 2 nM | 2 nM | CCOc1ccc(C(=O)N2CC(C(=O)NO)N(S(=O)(=O)c3ccc(OC)cc3)Cc3ccccc32)cc1 (stereo unspecified) | 24 nM |  | 
11 |  | 0.6 nM | COc1ccc(S(=O)(=O)N2Cc3ccccc3N(C(=O)c3ccccc3)CC2C(=O)NO)cc1 (stereo unspecified) |  |  | Inhibition (Bos taurus [4]): 46.3%; Activity (Bos taurus [6]): 0.73; Activity (Rattus norvegicus [8]): 1.2
12 |  | 8 nM | COc1ccc(S(=O)(=O)N2Cc3ccccc3N(S(C)(=O)=O)CC2C(=O)NO)cc1 (stereo unspecified) |  |  | 
13 |  |  | COc1ccc(S(=O)(=O)N2Cc3ccccc3N(C(=O)CCc3ccccc3)CC2C(=O)NO)cc1 (stereo unspecified) |  |  | Activity (Rattus norvegicus [8]): 0.22
14 |  |  | COCC(=O)N1CC(C(=O)NO)N(S(=O)(=O)c2ccc(Oc3ccc(Cl)cc3)cc2)Cc2ccccc21 (stereo unspecified) | 61 nM | 157 nM | IA (Rattus norvegicus [9]): inactive
15 |  |  | COc1ccc(S(=O)(=O)N2Cc3ccccc3N(C(C)=O)CC2C(=O)NO)cc1 (stereo unspecified) | 18 nM |  | Activity (Rattus norvegicus [2]): 0.9; Activity (Rattus norvegicus [8]): 1.7
16 |  |  | CC#CCOc1ccc(S(=O)(=O)N2Cc3ccccc3N(C(C)=O)CC2C(=O)NO)cc1 (stereo unspecified) |  |  | inhibition at 3 µM (THP-1): 60%

Row | SMILES | IC50 (Collagenase 3) | IC50 [7] | IC50 (Interstitial collagenase) | IC50 [3] | also measured
17 | O=C(NO)C1CN(C(=O)c2cccs2)c2ccccc2CN1S(=O)(=O)c1ccc(Oc2ccc(Cl)cc2)cc1 (stereo unspecified) | 4 nM | 2 nM | 35 nM | 254 nM | 
18 | COCC(=O)N1CC(C(=O)NO)N(S(=O)(=O)c2ccc(Oc3ccncc3)cc2)Cc2ccccc21 (stereo unspecified) | 2 nM | 2 nM | 763 nM | 157 nM | Activity (Rattus norvegicus [2]): 0.32
19 | CC#CCOc1ccc(S(=O)(=O)N2Cc3ccccc3N(C(=O)C3CC3)CC2C(=O)NO)cc1 (stereo unspecified) | 29 nM | 33 nM | 841 nM | 10 nM | inhibition at 3 µM (THP-1): 59%
